Experimental data: patent US9708268B2, “ROR modulators and their uses” (INNOV17 LLC, priority 2012, dated 2017)

Legend:
IL-17A [1] = assay: TH17 cytokine inhibition as measured by ELISA (IL-17A); format: cell-based; details: 120 h; human CD4+ T cells differentiated to TH17 over 5 days, supernatant ELISA, vs DMSO
Protocol: (§1) Peripheral blood mononuclear cells (PBMCs) were sourced from freshly prepared leukocyte enriched plasma (buffy coat) from healthy volunteers from which PBMCs were isolated by density gradient centrifugation using Ficoll-Paque™ PLUS (GE Healthcare). Naïve CD4+ T cells were isolated using the Naïve CD4+ T cell Isolation Kit II (Miltenyi Biotec) as per manufacturer's instructions. CD4+ T cells were plated at 5×10^4 cells/well in 96 well plates pre-coated with immobilized human (h)-αCD3 antibody (eBioscience) then differentiated to TH17 cells using h-αCD28, h-αIFN-γ, h-αIL-4, h-IL-6, h-IL-23, […], h-TGF-β1 (eBioscience) and maintained in a cell culture incubator at 37° C. with 5% CO2 in TexMACS Medium (Miltenyi Biotec) supplemented with 1% Penicillin/Streptomycin (Lonza) over 5 days.
(§2) Human CD4+ T cells were differentiated to TH17 cells as described in the presence or absence of various concentrations of compounds in a final concentration of 0.1% DMSO in TexMACS medium. Supernatants were collected and stored at −20° C. until they were to be assayed for IL-17A, IL-17F, IL-17AF, IL-21 and/or IL-22 levels as determined by Ready-Set-Go ELISA kits (eBioscience) as per manufacturer's instructions. Endpoint absorbance was read at 450 nm and 570 nm according to manufacturer's instructions (eBioscience) using a microplate reader (Perkin Elmer). The percentage of cytokine inhibition was calculated with reference to DMSO treated cells and the IC50s were determined by GraphPad Prism software and presented in the table below.

IL-17F [2] = assay: TH17 cytokine inhibition as measured by ELISA (IL-17F); format: cell-based; details: 120 h; human CD4+ T cells differentiated to TH17 over 5 days, supernatant ELISA, vs DMSO
Protocol: as §1, §2

IL-17AF = assay: TH17 cytokine inhibition as measured by ELISA (IL-17AF); format: cell-based; details: 120 h; human CD4+ T cells differentiated to TH17 over 5 days, supernatant ELISA, vs DMSO
Protocol: as §1, §2

[3] = TH17 cell viability (Prestoblue); format: cell-based; set-up: concentration or dose not given beside the values; details: human; percentage of DMSO treated cells; read-out: % viability of compound treated TH17 cells
Protocol: as §1
Cells were assayed for viability in the presence or absence of compound using Prestoblue® Cell Viability Reagent (Life Technologies) as per manufacturer's instructions after 30 minutes incubation of TH17 cells with reagent. Absorbance was measured at 570 nm and 600 nm using a microplate reader (Perkin Elmer) and data were analyzed as per manufacturer's instructions. Cell viability was expressed as a percentage of DMSO treated cells.

IL-22 [4] = assay: TH17 cytokine inhibition as measured by ELISA (IL-22); format: cell-based; details: 120 h; human CD4+ T cells differentiated to TH17 over 5 days, supernatant ELISA, vs DMSO
Protocol: as §1, §2

TH17 cells = assay: TH17 cellular proliferation (Prestoblue); format: cell-based, human; details: 3 μM compound, after 5 day TH17 differentiation, relative to DMSO treated cells
Protocol: as §1
Cellular proliferation was assessed in the presence or absence of 3 μM compound using Prestoblue® Cell Viability Reagent (Life Technologies) as per manufacturer's instructions using absorbance as the output measured by a microplate reader (Perkin Elmer) after 30 minutes of incubation of cells and reagent. A standard curve developed by plotting varying cell numbers versus absorbance was used to assess differences in cellular proliferation between compound treated or untreated cells after the 5 day TH17 differentiation period.

IL-17A [5] = assay: Real-time qRT-PCR gene expression in TH17 cells (IL-17A); format: cell-based, human; set-up: key: A: No change in gene expression observed relative to DMSO treated TH17 cells; B: Decreased gene expression observed relative to DMSO treated TH17 cells; C: Increased gene expression observed relative to DMSO treated TH17 cells; details: mRNA
Protocol: as §1
(§3) RNA was isolated from TH17 cells and cDNA was synthesized using the Verso cDNA kit (Thermo Scientific) as per manufacturer's instructions. IL-17A, IL-17F, IL-21, IL-22, G-CSF, IL-23R and FOXP3 gene expression were determined for compound treated and untreated TH17 cell samples using Solaris qPCR Gene expression assays (Thermo Scientific) with an iCycler iQ Real-Time PCR Detection System (Bio-Rad). Individual gene expression was normalized to a panel of six reference genes (ACTB, TBP, HPRT1, PGK1, TFRC and PPIA) (Thermo Scientific) and analyzed by REST 2009 (Qiagen) in accordance to MIQE guidelines (Bustin, et al. (2009) Clin. Chem. 55, 611-622), which is hereby incorporated by reference in its entirety). The effects of compounds on TH17 cytokine mRNA levels are presented as fold change in gene expression of compound treated TH17 cells relative to DMSO treated cells in the table below.

IL-17F [6] = assay: Real-time qRT-PCR gene expression in TH17 cells (IL-17F); format: cell-based, human; set-up: key: A: No change in gene expression observed relative to DMSO treated TH17 cells; B: Decreased gene expression observed relative to DMSO treated TH17 cells; C: Increased gene expression observed relative to DMSO treated TH17 cells; details: mRNA
Protocol: as §1, §3

IL-22 [7] = assay: Real-time qRT-PCR gene expression in TH17 cells (IL-22); format: cell-based, human; set-up: key: A: No change in gene expression observed relative to DMSO treated TH17 cells; B: Decreased gene expression observed relative to DMSO treated TH17 cells; C: Increased gene expression observed relative to DMSO treated TH17 cells; details: mRNA
Protocol: as §1, §3

IL-21 = assay: Real-time qRT-PCR gene expression in TH17 cells (IL-21); format: cell-based, human; set-up: key: A: No change in gene expression observed relative to DMSO treated TH17 cells; B: Decreased gene expression observed relative to DMSO treated TH17 cells; C: Increased gene expression observed relative to DMSO treated TH17 cells; details: mRNA
Protocol: as §1, §3

IL-23R = assay: Real-time qRT-PCR gene expression in TH17 cells (IL-23R); format: cell-based, human; set-up: key: A: No change in gene expression observed relative to DMSO treated TH17 cells; B: Decreased gene expression observed relative to DMSO treated TH17 cells; C: Increased gene expression observed relative to DMSO treated TH17 cells; details: mRNA
Protocol: as §1, §3

FOXP3 = assay: Real-time qRT-PCR gene expression in TH17 cells (FOXP3); format: cell-based, human; set-up: key: A: No change in gene expression observed relative to DMSO treated TH17 cells; B: Decreased gene expression observed relative to DMSO treated TH17 cells; C: Increased gene expression observed relative to DMSO treated TH17 cells; details: mRNA
Protocol: as §1, §3

Row | SMILES | IC50 (IL-17A [1]) [µM] | IC50 (IL-17F [2]) [µM] | IC50 (IL-17AF) [µM] | viability [3] [%] | IC50 (IL-22 [4]) [µM] | % change in TH17 cell number (TH17 cells) | Change in gene expression of compound treated TH17 cells relative to DMSO treated cells, IL-17A (IL-17A [5]) | Change in gene expression of compound treated TH17 cells relative to DMSO treated cells, IL-17F (IL-17F [6]) | Change in gene expression of compound treated TH17 cells relative to DMSO treated cells, IL-22 (IL-22 [7]) | Change in gene expression of compound treated TH17 cells relative to DMSO treated cells, IL-21 (IL-21) | Change in gene expression of compound treated TH17 cells relative to DMSO treated cells, IL-23R (IL-23R) | Change in gene expression of compound treated TH17 cells relative to DMSO treated cells, FOXP3 (FOXP3)
1 | NC(=O)c1ccc2c(c1)CCC(=O)N2Cc1ccc(C(O)(C(F)(F)F)C(F)(F)F)cc1 [Example 5, 1-(4-(1,1,1,3,3,3-hexafluoro-2-hydroxypropan-2-yl)benzyl)-2-oxo-1,2,3,4-tetrahydroquinoline-6-carboxamide] | > 10 | > 10 | > 10 | > 80 |  |  |  |  |  |  |  | 
2 | CN(C)C(=O)c1ccc2c(c1)CCC(=O)N2Cc1ccc(C(O)(C(F)(F)F)C(F)(F)F)cc1 [Example 7, 1-(4-(1,1,1,3,3,3-hexafluoro-2-hydroxypropan-2-yl)benzyl)-N,N-dimethyl-2-oxo-1,2,3,4-tetrahydroquinoline-6-carboxamide] | < 10 | < 10 | > 10 | > 80 |  |  |  |  |  |  |  | 
3 | NC(=O)c1ccc2c(ccc(=O)n2Cc2ccc(C(O)(C(F)(F)F)C(F)(F)F)cc2)c1 [Example 8, 1-(4-(1,1,1,3,3,3-hexafluoro-2-hydroxypropan-2-yl)benzyl)-2-oxo-1,2-dihydroquinoline-6-carboxamide] | < 10 | < 10 |  | > 80 | > 10 | B (≦50% decrease in cell proliferation relative to DMSO treated TH17 cells) | A | B | C | A | A | A
4 | CNC(=O)c1ccc2c(ccc(=O)n2Cc2ccc(C(O)(C(F)(F)F)C(F)(F)F)cc2)c1 [Example 9, 1-(4-(1,1,1,3,3,3-hexafluoro-2-hydroxypropan-2-yl)benzyl)-N-methyl-2-oxo-1,2-dihydroquinoline-6-carboxamide] | > 10 | > 10 |  | > 80 | > 10 | B (≦50% decrease in cell proliferation relative to DMSO treated TH17 cells) | B | B | B | B | A | A
5 | CN(C)C(=O)c1ccc2c(ccc(=O)n2Cc2ccc(C(O)(C(F)(F)F)C(F)(F)F)cc2)c1 [Example 10, 1-(4-(1,1,1,3,3,3-hexafluoro-2-hydroxypropan-2-yl)benzyl)-N,N-dimethyl-2-oxo-1,2-dihydroquinoline-6-carboxamide] | < 10 | > 10 |  | > 80 | > 10 | B (≦50% decrease in cell proliferation relative to DMSO treated TH17 cells) | A | A | A | A | A | A
6 | NC(=O)c1ccc2c(c1)CCN2Cc1ccc(C(O)(C(F)(F)F)C(F)(F)F)cc1 [Example 11, 1-(4-(1,1,1,3,3,3-hexafluoro-2-hydroxypropan-2-yl)benzyl)indoline-5-carboxamide] | < 10 | < 10 |  | > 80 | < 10 | B (≦50% decrease in cell proliferation relative to DMSO treated TH17 cells) |  |  |  |  |  | 
7 | CNC(=O)c1ccc2c(c1)CCN2Cc1ccc(C(O)(C(F)(F)F)C(F)(F)F)cc1 [Example 12, 1-(4-(1,1,1,3,3,3-hexafluoro-2-hydroxypropan-2-yl)benzyl)-N-methylindoline-5-carboxamide] | < 10 | < 10 |  | > 80 | > 10 | B (≦50% decrease in cell proliferation relative to DMSO treated TH17 cells) |  |  |  |  |  | 
8 | CN(C)C(=O)c1ccc2c(c1)CCN2Cc1ccc(C(O)(C(F)(F)F)C(F)(F)F)cc1 [Example 13, 1-(4-(1,1,1,3,3,3-hexafluoro-2-hydroxypropan-2-yl)benzyl)-N,N-dimethylindoline-5-carboxamide] | < 10 | < 10 |  | > 80 | < 10 | B (≦50% decrease in cell proliferation relative to DMSO treated TH17 cells) |  |  |  |  |  | 
